According to US20230391741A1, “AGAROFURAN COMPOUND, PREPARATION METHOD THEREFOR, AND APPLICATION THEREOF” (BEIJING CHY PHARMACEUTICAL TECHNOLOGY CO, LTD., priority 2021, published 2023):
Several values for one entry are separate records, joined by “and”; a condition that tells them apart may be missing. Equal values may be shown once.

Tested on: male ICR mice
Test: Elevated plus maze (EPM) test, intraperitoneal injection
Type: in vivo, mouse
Conditions: for Closed arm number of entries / Closed arm residence time / Open arm number of entries / Open arm residence time / Open arm/closed arm frequency ratio / Open arm/closed arm time ratio: mice, intraperitoneal, 5 min before entering the maze
Text: The active ingredient used in the following pharmacological experiment, the compound shown in Formula (I) of the present application, is the final product in Example 1 of the present application, namely (1R,6S,9R)6,10,10-trimethyl-2-(4,4,4-trifluorobutyl)-11-oxatricyclo [7.2.1.0^1,6]dodec-2-ene (hereinafter referred to as Compound 2). Compound 2 and an excipient PVP (povidone K30) were mixed in an ethanol solution in a mass ratio of 1:15, spin-dried, and prepared into a preparation form of Compound 2 (the following Compound 2 refers to the preparation form of Compound 2). The preparation form of which the active ingredient was 4-butyl-α-agarofuran (BAF for short) was used as a positive drug, a preparation method for this preparation was the same as that of the preparation of Compound 2, and the following BAF refers to this preparation of BAF. PVP was a blank control. In addition, the administration dose was calculated according to a crude drug.
This model is one of the most commonly used animal models in the research of antianxiety drugs. The elevated plus maze is composed of an open arm (30×5×0.5 cm) and an closed arm (30×8×15 cm) that are crossed in a positive cross shape, and the instrument is suspended 50 cm above the ground. Due to the narrowness, suspension, and brightness of the open arm, there may be internal “fear” or conflict in the open arm, and on the contrary, it more complies with the nature of rodents in the closed arm. 5 min after administration, a mouse is placed in the center of the maze, and its head faces to the open arm. Open-arm and closed-arm entries and residence times in both arms during the experimental period (usually 5 min) are recorded respectively. The percentages of the open arm entries and the open arm residence times respectively accounting for the total entries (sum of the open arm and closed arm entries) and the total time (sum of the open arm and closed arm residence times) are calculated, as an indicator for evaluating the anxiety. Generally speaking, a drug is considered to have antianxiety effects in the case that the open arm cumulative residence time is prolonged without reducing the open arm and closed arm entries.
The experiment used male Institute of Cancer Research (ICR) mice (purchased from Beijing Weitong Lihua Experimental Animal Technology Co., Ltd.), the weight was 18-20 g, the mice were randomly divided into 7 groups according to the weight, and there were 13 mice in each group. Grip adaptation training was conducted on the mice before the experiment. Before the experiment, the mice were fasted for 12 hours. It was administered by an intraperitoneal injection mode. 4-butyl-α-agarofuran (BAF for short) was used as a positive drug, and PVP was a blank control. The specific grouping and disposal modes are as follows:
During detection, after intraperitoneal injection of BAF/Compound 2, each mouse was immediately placed in an open animal box and allowed to move freely for 5 min, then the mouse was placed on a central platform of the elevated plus maze, its head faced to a fixed open arm. The detection was started, timed for 5 min, and recorded with a supermaze software by using a camera head. After all the experiments were completed, the residence times (s) of the mice in the open arm and the closed arm, the open arm and closed arm entries, and the time ratios and frequency ratios of the open arm and closed arm entries were recorded with the supermaze software. 1 was added to the number of entry arms with a latency of 0.

## CCCCC1=CCC[C@@]2(C)CC[C@@H]3C[C@]12OC3(C)C [BAF, 4-butyl-α-agarofuran, reference compound]
2 mg/kg, 2 mg/kg
  Closed arm number of entries: 10.31 ± 1.13 and 11.22 ± 1.5 and 9.90 ± 1.19
  Closed arm residence time: 143.9 ± 9.32 s and 148.89 ± 8.27 s and 146.67 ± 7.95 s
  Open arm number of entries: 8.62 ± 0.92 and 8.78 ± 1.1 and 8.80 ± 1.14
  Open arm residence time: 115.97 ± 9.71 s and 110.32 ± 8.91 s and 110.04 ± 6.30 s
  Open arm/closed arm frequency ratio: 0.85 ± 0.06 and 0.80 ± 0.07 and 0.89 ± 0.07
  Open arm/closed arm time ratio: 0.93 ± 0.16 and 0.79 ± 0.12 and 0.80 ± 0.11
4 mg/kg, 4 mg/kg
  Closed arm number of entries: 9.23 ± 0.57 and 8.89 ± 0.79 and 9.29 ± 0.68
  Closed arm residence time: 153.35 ± 7.35 s and 162.64 ± 5.96 s and 144.17 ± 12.09 s
  Open arm number of entries: 7.38 ± 0.58 and 6.56 ± 0.4 and 8.29 ± 0.87
  Open arm residence time: 117.29 ± 7.44 s and 106.13 ± 3.91 s and 128.84 ± 11.89 s
  Open arm/closed arm frequency ratio: 0.82 ± 0.07 and 0.77 ± 0.06 and 0.91 ± 0.09
  Open arm/closed arm time ratio: 0.82 ± 0.11 and 0.66 ± 0.04 and 0.98 ± 0.18
8 mg/kg, 8 mg/kg
  Closed arm number of entries: 9.85 ± 0.72 and 9.78 ± 1.00 and 9.60 ± 0.87
  Closed arm residence time: 162.19 ± 10.92 s and 158.24 ± 14.9 s and 165.34 ± 13.19 s
  Open arm number of entries: 7.69 ± 0.91 and 8.11 ± 1.27 and 7.10 ± 0.95
  Open arm residence time: 110.07 ± 9.77 s and 113.25 ± 12.84 s and 107.74 ± 11.86 s
  Open arm/closed arm frequency ratio: 0.76 ± 0.05 and 0.76 ± 0.07 and 0.72 ± 0.06
  Open arm/closed arm time ratio: 0.76 ± 0.10 and 0.81 ± 0.13 and 0.74 ± 0.12

## CC1(C)O[C@]23C[C@H]1CC[C@]2(C)CCC=C3CCCC(F)(F)F [Compound 2, (1R,6S,9R)6,10,10-trimethyl-2-(4,4,4-trifluorobutyl)-11-oxatricyclo [7.2.1.0^1,6]dodec-2-ene]
At both low and medium doses, especially low dose
  Efficacy compared with BAF: better efficacy than BAF
At low doses
  Efficacy compared with BAF: better efficacy
Intraperitoneal doses of 2.4, 4.8 and 9.6 mg/kg
  Antianxiety effects in elevated plus maze: significant antianxiety effects
2.4 mg/kg
  Closed arm number of entries: 10.92 ± 0.84
  Closed arm residence time: 112.68 ± 8.68 s
  Open arm number of entries: 9.23 ± 0.47
  Open arm residence time: 144.06 ± 8.10 s
  Open arm/closed arm frequency ratio: 0.89 ± 0.06
  Open arm/closed arm time ratio: 1.48 ± 0.24
4.8 mg/kg
  Closed arm number of entries: 10.00 ± 0.57
  Closed arm residence time: 149.91 ± 8.22 s
  Open arm number of entries: 9.08 ± 0.69
  Open arm residence time: 118.65 ± 6.32 s
  Open arm/closed arm frequency ratio: 0.93 ± 0.07
  Open arm/closed arm time ratio: 0.86 ± 0.11
9.6 mg/kg
  Closed arm number of entries: 9.85 ± 1.08
  Closed arm residence time: 139.13 ± 11.37 s
  Open arm number of entries: 9.31 ± 1.12
  Open arm residence time: 115.0 ± 8.07 s
  Open arm/closed arm frequency ratio: 0.99 ± 0.10
  Open arm/closed arm time ratio: 0.93 ± 0.12
